Molecular target: T1, c-Met kinase (recombinant c-Met) (Homo sapiens, UniProt P08581)
T1 construct: 0.27 nM recombinant c-Met
Assay: In vitro kinase assay I (homogeneous time-resolved fluorescence tyrosine kinase assay)
Type: biochemical
Method in brief: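 Biotinylated peptide (0.5 μM) phosphorylated by 0.2 nM recombinant c-Met with 50 μM MgATP, 60 min at room temperature, pH 7.4, 5% DMSO. EDTA stop; HTRF read with Eu-anti-phosphotyrosine antibody and streptavidin-APC. IC50 from 4-parameter logistic fit.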

T1 sequence (P08581 25-1390): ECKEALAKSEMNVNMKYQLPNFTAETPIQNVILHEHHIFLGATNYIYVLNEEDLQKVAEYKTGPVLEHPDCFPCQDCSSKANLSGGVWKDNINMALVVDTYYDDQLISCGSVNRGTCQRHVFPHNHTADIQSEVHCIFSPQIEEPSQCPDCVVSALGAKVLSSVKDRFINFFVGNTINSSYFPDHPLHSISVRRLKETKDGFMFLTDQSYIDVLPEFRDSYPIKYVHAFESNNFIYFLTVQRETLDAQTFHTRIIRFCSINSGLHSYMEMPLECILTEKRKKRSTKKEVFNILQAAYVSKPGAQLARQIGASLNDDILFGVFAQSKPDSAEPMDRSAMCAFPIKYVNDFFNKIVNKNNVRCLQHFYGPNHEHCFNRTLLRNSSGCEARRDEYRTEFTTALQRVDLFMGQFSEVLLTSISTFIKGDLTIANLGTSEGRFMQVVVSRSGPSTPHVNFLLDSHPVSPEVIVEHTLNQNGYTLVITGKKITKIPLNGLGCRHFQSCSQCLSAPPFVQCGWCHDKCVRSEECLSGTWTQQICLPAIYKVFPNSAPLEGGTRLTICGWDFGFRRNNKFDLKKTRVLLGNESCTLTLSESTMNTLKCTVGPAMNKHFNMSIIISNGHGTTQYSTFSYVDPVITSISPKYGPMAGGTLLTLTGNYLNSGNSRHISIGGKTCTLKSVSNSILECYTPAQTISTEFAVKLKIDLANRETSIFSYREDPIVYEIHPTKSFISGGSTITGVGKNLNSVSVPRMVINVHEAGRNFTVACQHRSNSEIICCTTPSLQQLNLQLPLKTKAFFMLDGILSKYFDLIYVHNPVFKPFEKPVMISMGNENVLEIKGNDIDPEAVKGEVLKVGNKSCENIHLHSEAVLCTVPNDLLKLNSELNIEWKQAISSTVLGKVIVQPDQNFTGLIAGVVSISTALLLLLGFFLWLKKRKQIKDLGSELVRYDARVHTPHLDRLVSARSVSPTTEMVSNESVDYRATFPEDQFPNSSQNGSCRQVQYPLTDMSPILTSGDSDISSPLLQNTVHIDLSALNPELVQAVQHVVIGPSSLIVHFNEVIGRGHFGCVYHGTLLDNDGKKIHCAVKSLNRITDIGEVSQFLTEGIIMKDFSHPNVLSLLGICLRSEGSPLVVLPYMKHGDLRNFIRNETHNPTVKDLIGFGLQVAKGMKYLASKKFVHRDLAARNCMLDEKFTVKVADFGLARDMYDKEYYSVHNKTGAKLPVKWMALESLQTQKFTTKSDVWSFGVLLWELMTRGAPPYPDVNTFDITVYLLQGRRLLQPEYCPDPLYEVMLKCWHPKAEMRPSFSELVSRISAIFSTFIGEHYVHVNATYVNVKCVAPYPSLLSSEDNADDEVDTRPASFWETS

Row | IC50 | Compound
1 | < 100 nM | Cn1cc(-n2ccc(=O)c(Cc3cccc(-c4ncc(OCC5(F)COC5)cn4)c3)n2)cn1 [Example 272, 3-(3-{5-[(3-fluorooxetan-3-yl)methoxy]pyrimidin-2-yl}benzyl)-1-(1-methyl-1H-pyrazol-4-yl)pyridazin-4(1H)-one]
2 | < 100 nM | Cn1cc(-n2ccc(=O)c(Cc3cccc(-c4ncc(OCC(F)F)cn4)c3)n2)cn1 [Example 274, 3-{3-[5-(2,2-difluoroethoxy)pyrimidin-2-yl]benzyl}-1-(1-methyl-1H-pyrazol-4-yl)pyridazin-4(1H)-one]
3 | < 100 nM | [2H]C([2H])([2H])C([2H])([2H])Oc1cnc(-c2cccc(Cc3nn(-c4cnn(C)c4)ccc3=O)c2)nc1 [Example 275, 3-[3-(5-ethoxypyrimidin-2-yl)benzyl]-1-(1-methyl-1H-pyrazol-4-yl)pyridazin-4(1H)-one-d5]
4 | < 100 nM | Cn1cc(-n2ccc(=O)c(Cc3cccc(-c4ncc(OCC5CC5)cn4)c3)n2)cn1 [Example 278, 3-{3-[5-(cyclopropylmethoxy)pyrimidin-2-yl]benzyl}-1-(1-methyl-1H-pyrazol-4-yl)pyridazin-4(1H)-one]
5 | < 100 nM | CN(C)C(=O)COc1cnc(-c2cccc(Cc3nn(-c4cnn(C)c4)ccc3=O)c2)nc1 [Example 279, N,N-dimethyl-2-{[2-(3-{[1-(1-methyl-1H-pyrazol-4-yl)-4-oxo-1,4-dihydropyridazin-3-yl]methyl}phenyl)pyrimidin-5-yl]oxy}acetamide]
6 | < 100 nM | Cn1cc(-n2ccc(=O)c(Cc3cccc(-c4ncc(OCC(=O)N5CCOCC5)cn4)c3)n2)cn1 [Example 280, 1-(1-methyl-1H-pyrazol-4-yl)-3-{3-[5-(2-morpholin-4-yl-2-oxoethoxy)pyrimidin-2-yl]benzyl}pyridazin-4(1H)-one]
7 | < 100 nM | Cc1cc(COc2cnc(-c3cccc(Cc4nn(-c5cnn(C)c5)ccc4=O)c3)nc2)no1 [Example 285, 3-(3-{5-[(5-methylisoxazol-3-yl)methoxy]pyrimidin-2-yl}benzyl)-1-(1-methyl-1H-pyrazol-4-yl)pyridazin-4(1H)-one]
8 | < 100 nM | Cc1cc(COc2cnc(-c3cccc(Cc4nn(-c5cnn(C)c5)ccc4=O)c3)nc2)on1 [Example 286, 3-(3-{5-[(3-methylisoxazol-5-yl)methoxy]pyrimidin-2-yl}benzyl)-1-(1-methyl-1H-pyrazol-4-yl)pyridazin-4(1H)-one]
9 | < 100 nM | Cn1cc(-n2ccc(=O)c(Cc3cccc(-c4ncc(OCC(=O)OC(C)(C)C)cn4)c3)n2)cn1 [Example 287, tert-butyl [2-(3-{[1-(1-methyl-1H-pyrazol-4-yl)-4-oxo-1,4-dihydropyridazin-3-yl]methyl}phenyl)pyrimidin-5-yl]oxyacetate]
10 | < 100 nM | CCn1cc(-n2ccc(=O)c(Cc3cccc(-c4ncc(OCC5CCN(C(=O)OC(C)(C)C)CC5)cn4)c3)n2)cn1 [Example 288, tert-butyl 4-({[2-(3-{[1-(1-ethyl-1H-pyrazol-4-yl)-4-oxo-1,4-dihydropyridazin-3-yl]methyl}phenyl)pyrimidin-5-yl]oxy}methyl)piperidine-1-carboxylate]
11 | < 100 nM | CCn1cc(-n2ccc(=O)c(Cc3cccc(-c4ncc(OC5CN(C(=O)OC(C)(C)C)C5)cn4)c3)n2)cn1 [Example 289, tert-butyl 3-{[2-(3-{[1-(1-ethyl-1H-pyrazol-4-yl)-4-oxo-1,4-dihydropyridazin-3-yl]methyl}phenyl)pyrimidin-5-yl]oxy}azetidine-1-carboxylate]

More lines, now with the values behind:

Row | Compound | IC50
12 | Cn1cc(-n2ccc(=O)c(Cc3cccc(-c4ncc(OCCn5cncn5)cn4)c3)n2)cn1 [Example 271, 1-(1-methyl-1H-pyrazol-4-yl)-3-(3-{5-[2-(1H-1,2,4-triazol-1-yl)ethoxy]pyrimidin-2-yl}benzyl)pyridazin-4(1H)-one] | < 100 nM
13 | Cn1cc(-n2ccc(=O)c(Cc3cccc(-c4ncc(OCCc5cnoc5)cn4)c3)n2)cn1 [Example 273, 3-{3-[5-(2-isoxazol-4-ylethoxy)pyrimidin-2-yl]benzyl}-1-(1-methyl-1H-pyrazol-4-yl)pyridazin-4(1H)-one] | < 100 nM
14 | Cn1cc(-n2ccc(=O)c(Cc3cccc(-c4ncc(OC5CCOCC5)cn4)c3)n2)cn1 [Example 277, 1-(1-methyl-1H-pyrazol-4-yl)-3-{3-[5-(tetrahydro-2H-pyran-4-yloxy)pyrimidin-2-yl]benzyl}pyridazin-4(1H)-one] | < 100 nM
15 | Cc1nc(COc2cnc(-c3cccc(Cc4nn(-c5cnn(C)c5)ccc4=O)c3)nc2)no1 [Example 281, 3-(3-{5-[(5-methyl-1,2,4-oxadiazol-3-yl)methoxy]pyrimidin-2-yl}benzyl)-1-(1-methyl-1H-pyrazol-4-yl)pridazin-4(1H)-one] | < 100 nM
16 | Cn1cc(-n2ccc(=O)c(Cc3cccc(-c4ncc(OCc5noc(C6CC6)n5)cn4)c3)n2)cn1 [Example 282, 3-(3-{5-[(5-cyclopropyl-1,2,4-oxadiazol-3-yl)methoxy]pyrimidin-2-yl}benzyl)-1-(1-methyl-1H-pyrazol-4-yl)pyridazin-4(1H)-one] | < 100 nM
17 | CC(C)c1nc(COc2cnc(-c3cccc(Cc4nn(-c5cnn(C)c5)ccc4=O)c3)nc2)no1 [Example 283, 3-[3-(5-{[5-(1-methylethyl)-1,2,4-oxadiazol-3-yl]methoxy}pyrimidin-2-yl)benzyl]-1-(1-methyl-1H-pyrazol-4-yl)pyridazin-4(1H)-one] | < 100 nM
18 | Cn1cc(-n2ccc(=O)c(Cc3cccc(-c4ncc(OCc5ccsn5)cn4)c3)n2)cn1 [Example 284, 3-{3-[5-(isothiazol-3-ylmethoxy)pyrimidin-2-yl]benzyl}-1-(1-methyl-1H-pyrazol-4-yl)pyridazin-4(1H)-one] | < 100 nM
19 | CCn1cc(-n2ccc(=O)c(Cc3cccc(-c4ncc(OC(C)C)cn4)c3)n2)cn1 [Example 305, 1-(1-ethyl-1H-pyrazol-4-yl)-3-[3-(5-isopropoxypyrimidin-2-yl)benzyl]pyridazin-4(1H)-one] | < 100 nM
20 | CCn1cc(-n2ccc(=O)c(Cc3cccc(-c4ncc(OCC(F)F)cn4)c3)n2)cn1 [Example 306, 3-{3-[5-(2,2-difluoroethoxy)pyrimidin-2-yl]benzyl}-1-(1-ethyl-1H-pyrazol-4-yl)pyridazin-4(1H)-one] | < 100 nM
21 | CCn1cc(-n2ccc(=O)c(Cc3cccc(-c4ncc(OCCO)cn4)c3)n2)cn1 [Example 307, 1-(1-ethyl-1H-pyrazol-4-yl)-3-{3-[5-(2-hydroxyethoxy)pyrimidin-2-yl]benzyl}pyridazin-4(1H)-one] | < 100 nM
22 | CCn1cc(-n2ccc(=O)c(Cc3cccc(-c4ncc(OCCN5CCOCC5)cn4)c3)n2)cn1 [Example 312, 1-(1-ethyl-1H-pyrazol-4-yl)-3-{3-[5-(2-morpholin-4-ylethoxy)pyrimidin-2-yl]benzyl}pyridazin-4(1H)-one] | < 100 nM
23 | CCn1cc(-n2ccc(=O)c(Cc3cccc(-c4ncc(OCc5cc(C)no5)cn4)c3)n2)cn1 [Example 313, 1-(1-ethyl-1H-pyrazol-4-yl)-3-(3-{5-[(3-methylisoxazol-5-yl)methoxy]primidin-2-yl}benzyl)pyridazin-4(1H)-one] | < 100 nM
24 | CCn1cc(-n2ccc(=O)c(Cc3cccc(-c4ncc(OCc5noc(C)n5)cn4)c3)n2)cn1 [Example 314, 1-(1-ethyl-1H-pyrazol-4-yl)-3-(3-{5-[(5-methyl-1,2,4-oxadiazol-3-yl)methoxy]pyrimidin-2-yl}benzyl)pyridazin-4(1H)-one] | < 100 nM

Source: patent US20120264735A1 (priority 2009, published 2012)
